The values below come from patent US5391800A, “Method for inhibition of cell motility by sphingosine-1-phosphate, its derivatives and mimetics and method of synthesizing sphingosine-1-phosphate and its derivatives” (The Biomembrane Institute, priority 1993, dated 1995).

Structures are written as SMILES.

One test relates to B16/F10 cells. The test can be described thus: Chemotactic motility of B16/F10 cells through MATRI-GEL-coated transwell filter. The format is cell-based, mouse. How it is done: (§1) The assays for determining chemotactic cell motility and chemoinvasion can be performed using transwell plates with a polycarbonate membrane filter (pore size 8 μm) (Costar Scientific, Cambridge, Mass.). Aliguots, e.g., 50 μl, of an aqueous solution of MATRI-GEL (Collaborative Research, Bedford, Mass.) containing SPN-1-P or other inhibitor (e.g., 20 μg/ml for chemotactic motility assay or 200 μg/ml for chemoinvasion assay), is added to each well and dried overnight. The filter is then fitted onto the lower chamber plate. The lower chamber can contain conditioned medium (CM) (i.e., medium used for splenic stromal cell culture, and containing motility factor secreted by these cells), e.g., 0.6 ml, with or without SPN-1-P or other inhibitor. To the upper chamber is added, e.g., about 100 μl, of cell suspension (5×10^4 cells/ml for invasion assay, 5×10^5 cells/ml for motility assay), which is then incubated in 5% CO2 at 37° C. for 70-72 hours (invasion assay) or 20 hours (motility assay). After incubation, cells remaining in the upper chamber are wiped off with a cotton swab, and cells which had migrated to the lower chamber side of the filter are fixed in methanol for 30 seconds and stained with 0.05% toluidine blue. The filter is removed, the stain is solubilized in 10% acetic acid (e.g., 0.1 ml for invasion assay, 0.5 ml for motility assay), and color intensity (optical density) is quantitated by ELISA reading at 630 nm. Using SPN-1-P, a linear relationship was observed between cell number and toluidine blue optical density (FIG. 7).
(§2) Assays were performed using transwell plates with polycarbonate membrane filters (pore size 8 μm) (Costar Scientific, Cambridge, Mass.). 50 μl aliguots of an aqueous solution of MATRI-GEL (Collaborative Research, Bedford, Mass.) containing 20 μg/ml (for chemotactic motility assay) or 200 μg/ml (for chemoinvasion assay) were added to each well and dried overnight. The filter was fitted onto the lower chamber plate. The lower chamber contained 0.6 ml conditioned medium (CM) (i.e., medium used for splenic stromal cell culture, and containing motility factor secreted by these cells) with or without the suspected inhibitor. To the upper chamber was added 100 μl of cell suspension (5×10^4 cells/ml for invasion assay, 5×10^5 cells/ml for motility assay), which was then incubated in 5% CO2 at 37° C. for 70-72 hours (invasion assay) or 20 hours (motility assay). After incubation, cells remaining in the upper chamber were wiped off with a cotton swab, and cells which had migrated to the lower chamber side of the filter were fixed in methanol for 30 seconds and stained with 0.05% toluidine blue. The filter was removed, the stain was solubilized in 10% acetic acid (0.1 ml for invasion assay, 0.5 ml for motility assay), and color intensity (optical density) was quantitated by ELISA reading at 630 nm. A linear relationship was observed between cell number and toluidine blue optical density (FIG. 7.).
(§3) In experiments with different quantities of MATRI-GEL, cell migration through transwell filter was maximal with 1 μg/well was applied, and when CM was used (FIG. 8). Therefore, chemotactic cell motility, as affected by various SPN derivatives, was assayed under these conditions.
(§4) *Mean ± S.E. of percent relative to control (n = 4). Actual O.D. value
(§5) and 0.147 (HT1080). 6 × 10^4 cells were placed on a transwell
(§6) filter coated with 1.0 μg MATRIGEL in the upper chamber, and cultured
(§7) for 18 hours in the presence of CM and SPN1-P in the lower chamber.

In a further test the test system is Balb/c 3T3 fibroblasts. Put plainly: Chemotactic motility of Balb/c 3T3 fibroblasts through MATRI-GEL-coated transwell filter. It is filed as cell-based. The conditions noted are these: Mus musculus, 18 hours, relative to control, mean ± S.E., n = 4. How it is done: as §1, §2, §3, §4, §5, §6, §7
The subject of test [1] is human fibrosarcoma HT1080 cells. Put plainly: Chemotactic motility of fibrosarcoma HT1080 cells through MATRI-GEL-coated transwell filter. It is filed as cell-based. The procedure: as §1, §2, §3, §4, §5, §6, §7

As for `CCCCCCCCCCCCC/C=C/[C@@H](O)[C@@H](N)COP(=O)(O)O` [SPN-1-P, sphingosine-1-phosphate], the activity at 0.001 µM in the test with B16/F10 cells (Mus musculus, B16-F10, F10, 0.001 μM, 18 hours, relative to control, mean ± S.E., n = 4) was 96 ± 21%; in the test with Balb/c 3T3 fibroblasts (BALB/c3T3, 0.001 μM), 119 ± 9%; in test [1] (Homo sapiens, HT-1080, HT1080, 0.001 μM, 18 hours, relative to control, mean ± S.E., n = 4), 100 ± 21%. Also, the activity at 0.01 µM in the test on B16/F10 cells (Mus musculus, B16-F10, F10, 0.01 μM, 18 hours, relative to control, mean ± S.E., n = 4) amounted to 10 ± 4%; in the test with Balb/c 3T3 fibroblasts (BALB/c3T3, 0.01 μM) it was 125 ± 5%; in test [1] (Homo sapiens, HT-1080, HT1080, 0.01 μM, 18 hours, relative to control, mean ± S.E., n = 4), 100 ± 30%. The activity at 0.1 µM in the test with B16/F10 cells (Mus musculus, B16-F10, F10, 0.1 μM, 18 hours, relative to control, mean ± S.E., n = 4) is 4 ± 2%; in the test with Balb/c 3T3 fibroblasts (BALB/c3T3, 0.1 μM), 101 ± 10%; in test [1] (Homo sapiens, HT-1080, HT1080, 0.1 μM, 18 hours, relative to control, mean ± S.E., n = 4), 115 ± 35%. Also, the activity at 1 µM was determined as 4 ± 1% in the test with B16/F10 cells (Mus musculus, B16-F10, F10, 1.0 μM, 18 hours, relative to control, mean ± S.E., n = 4); 40 ± 1% in the test with Balb/c 3T3 fibroblasts (BALB/c3T3, 1.0 μM); 105 ± 14% in test [1] (Homo sapiens, HT-1080, HT1080, 1.0 μM, 18 hours, relative to control, mean ± S.E., n = 4). The “Susceptibility of B16/F10 cells (chemotactic motility)” value with B16/F10 cells (Table V, in words) is on record as “high”. The activity at 5 µM in the test on Balb/c 3T3 fibroblasts (BALB/c3T3, 5.0 μM) was found to be 11 ± 1%; in test [1] (Homo sapiens, HT-1080, HT1080, 5.0 μM, 18 hours, relative to control, mean ± S.E., n = 4), 64 ± 4%. In test [1] (Table V, in words), the “Susceptibility of human fibrosarcoma HT1080 cells (chemotactic motility)” value is “low”.
